Laboratory results reported in ChEMBL document CHEMBL1201862, “PubChem BioAssay data set” (2004).
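Interpolation was linear, between the two tested concentrations surrounding the appropriate level; five concentrations were tested over 48 hours in 96-well plates. GI50 = concentration required for 50% inhibition of growth.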 The source made the active and inactive calls. Cut-off read from the data, not from the text of the source: active = GI50 up to about 1.1 µM and inactive = higher.

Tests used:
Assay in all cases: growth of human tumour cells (NCI), 48 h
DLD-1 = test system: DLD-1
A549 = test system: A549
SK-OV-3 = test system: SK-OV-3
NCI-H522 = test system: NCI-H522
SF-295 = test system: SF-295
A498 = test system: A498
Malme-3M = test system: Malme-3M
UO-31 = test system: UO-31
OVCAR-4 = test system: OVCAR-4
KM-20L2 = test system: KM-20L2
COLO 205 = test system: COLO 205
OVCAR-8 = test system: OVCAR-8
MOLT-4 = test system: MOLT-4
LOX IMVI = test system: LOX IMVI
UACC-62 = test system: UACC-62
NCI-H226 = test system: NCI-H226
HOP-18 = test system: HOP-18
UACC-257 = test system: UACC-257
RPMI-8226 = test system: RPMI-8226
M19-MEL = test system: M19-MEL
SW-620 = test system: SW-620
CAKI-1 = test system: CAKI-1
EKVX = test system: EKVX
SK-MEL-5 = test system: SK-MEL-5
SNB-75 = test system: SNB-75
KM12 = test system: KM12
HL-60 = test system: HL-60
CCRF-CEM = test system: CCRF-CEM
OVCAR-5 = test system: OVCAR-5
SK-MEL-2 = test system: SK-MEL-2
XF498 = test system: XF498
SF-539 = test system: SF-539
OVCAR-3 = test system: OVCAR-3
HOP-92 = test system: HOP-92
HCT-15 = test system: HCT-15
NCI-H460 = test system: NCI-H460
DMS-273 = test system: DMS-273
HCT-116 = test system: HCT-116
SK-MEL-28 = test system: SK-MEL-28
NCI-H23 = test system: NCI-H23
SNB-78 = test system: SNB-78
SF-268 = test system: SF-268
IGROV-1 = test system: IGROV-1
K562 = test system: K562
RXF 393 = test system: RXF 393
SN12C = test system: SN12C
NCI/ADR-RES = test system: NCI/ADR-RES
HT-29 = test system: HT-29
HCC 2998 = test system: HCC 2998
DMS-114 = test system: DMS-114
U-251 = test system: U-251
SNB-19 = test system: SNB-19
HOP-62 = test system: HOP-62
MCF7 = test system: MCF7
TK-10 = test system: TK-10
SR = test system: SR
786-0 = test system: 786-0
LXFL 529 = test system: LXFL 529
ACHN = test system: ACHN

SMILES: Cn1c(-c2ccccc2)cc(-c2cccs2)c1-c1cccs1
- GI50 (DLD-1): > 100 µM (inactive)
- GI50 (A549): > 100 µM (inactive)
- GI50 (SK-OV-3): > 100 µM (inactive)
- GI50 (NCI-H522): > 64.6 µM (inactive)
- GI50 (SF-295): > 100 µM (inactive)
- GI50 (A498): > 100 µM (inactive)
- GI50 (Malme-3M): > 100 µM (inactive)
- GI50 (UO-31): > 100 µM (inactive)
- GI50 (OVCAR-4): > 96.4 µM (inactive)
- GI50 (KM-20L2): 47.2 µM (inactive)
- GI50 (COLO 205): 82.6 µM (inactive)
- GI50 (OVCAR-8): > 100 µM (inactive)
- GI50 (MOLT-4): 48.9 µM (inactive)
- GI50 (LOX IMVI): 52 µM (inactive)
- GI50 (UACC-62): > 100 µM (inactive)
- GI50 (NCI-H226): > 100 µM (inactive)
- GI50 (HOP-18): > 100 µM (inactive)
- GI50 (UACC-257): > 35.4 µM (inactive)
- GI50 (RPMI-8226): 73.3 µM (inactive)
- GI50 (M19-MEL): 83.2 µM (inactive)
- GI50 (SW-620): > 100 µM (inactive)
- GI50 (CAKI-1): > 100 µM (inactive)
- GI50 (EKVX): 34.2 µM (inactive)
- GI50 (SK-MEL-5): 45.3 µM (inactive)
- GI50 (SNB-75): > 100 µM (inactive)
- GI50 (KM12): 22.3 µM (inactive)
- GI50 (HL-60): 54.8 µM (inactive)
- GI50 (CCRF-CEM): 18.2 µM (inactive)
- GI50 (OVCAR-5): > 100 µM (inactive)
- GI50 (SK-MEL-2): > 100 µM (inactive)
- GI50 (XF498): > 100 µM (inactive)
- GI50 (SF-539): > 100 µM (inactive)
- GI50 (OVCAR-3): > 100 µM (inactive)
- GI50 (HOP-92): > 29.2 µM (inactive)
- GI50 (HCT-15): 46.2 µM
- GI50 (NCI-H460): 71.9 µM (inactive)
- GI50 (DMS-273): > 100 µM (inactive)
- GI50 (HCT-116): > 100 µM (inactive)
- GI50 (SK-MEL-28): > 100 µM (inactive)
- GI50 (NCI-H23): 49.3 µM (inactive)
- GI50 (SNB-78): > 100 µM (inactive)
- GI50 (SF-268): > 100 µM (inactive)
- GI50 (IGROV-1): > 100 µM (inactive)
- GI50 (K562): 51.6 µM (inactive)
- GI50 (RXF 393): > 81.3 µM (inactive)
- GI50 (SN12C): > 100 µM (inactive)
- GI50 (NCI/ADR-RES): > 100 µM (inactive)
- GI50 (HT-29): 51.2 µM (inactive)
- GI50 (HCC 2998): 49.5 µM (inactive)
- GI50 (DMS-114): > 52 µM (inactive)
- GI50 (U-251): > 100 µM (inactive)
- GI50 (SNB-19): > 100 µM (inactive)
- GI50 (HOP-62): > 81.3 µM (inactive)
- GI50 (MCF7): 24 µM (inactive)

SMILES: C(=N\CC/N=C/c1cccc2ccccc12)/c1cccc2ccccc12
- GI50 (DLD-1): > 100 µM (inactive)
- GI50 (A549): > 100 µM (inactive)
- GI50 (SK-OV-3): 22.1 µM (inactive)
- GI50 (TK-10): > 100 µM (inactive)
- GI50 (NCI-H522): > 100 µM (inactive)
- GI50 (SF-295): > 100 µM (inactive)
- GI50 (Malme-3M): > 100 µM (inactive)
- GI50 (UO-31): > 100 µM (inactive)
- GI50 (OVCAR-4): > 100 µM (inactive)
- GI50 (KM-20L2): > 100 µM (inactive)
- GI50 (COLO 205): > 100 µM (inactive)
- GI50 (OVCAR-8): > 100 µM (inactive)
- GI50 (MOLT-4): > 100 µM (inactive)
- GI50 (UACC-62): > 100 µM (inactive)
- GI50 (NCI-H226): > 100 µM (inactive)
- GI50 (HOP-18): > 100 µM (inactive)
- GI50 (UACC-257): > 100 µM (inactive)
- GI50 (SR): > 100 µM (inactive)
- GI50 (RPMI-8226): > 100 µM (inactive)
- GI50 (M19-MEL): > 100 µM (inactive)
- GI50 (SW-620): > 100 µM (inactive)
- GI50 (CAKI-1): > 100 µM (inactive)
- GI50 (EKVX): > 100 µM (inactive)
- GI50 (SK-MEL-5): > 100 µM (inactive)
- GI50 (SNB-75): 12.6 µM (inactive)
- GI50 (KM12): > 100 µM (inactive)
- GI50 (OVCAR-5): > 100 µM (inactive)
- GI50 (SK-MEL-2): > 100 µM (inactive)
- GI50 (786-0): > 100 µM (inactive)
- GI50 (XF498): > 100 µM (inactive)
- GI50 (SF-539): > 100 µM (inactive)
- GI50 (HOP-92): < 0.01 µM (active)
- GI50 (HCT-15): > 100 µM
- GI50 (NCI-H460): > 100 µM (inactive)
- GI50 (DMS-273): > 100 µM (inactive)
- GI50 (HCT-116): > 100 µM (inactive)
- GI50 (LXFL 529): > 100 µM (inactive)
- GI50 (SK-MEL-28): > 100 µM (inactive)
- GI50 (NCI-H23): > 100 µM (inactive)
- GI50 (SNB-78): > 100 µM (inactive)
- GI50 (IGROV-1): > 100 µM (inactive)
- GI50 (K562): > 100 µM (inactive)
- GI50 (RXF 393): > 100 µM (inactive)
- GI50 (SN12C): > 100 µM (inactive)
- GI50 (ACHN): > 100 µM (inactive)
- GI50 (HT-29): > 100 µM (inactive)
- GI50 (HCC 2998): > 100 µM (inactive)
- GI50 (DMS-114): > 100 µM (inactive)
- GI50 (U-251): > 100 µM (inactive)
- GI50 (SNB-19): > 100 µM (inactive)

SMILES: O=[N+]([O-])c1cccc(C2=NN(c3ccccc3)C3c4cc(Br)ccc4OCC23)c1 (centres undefined)
- GI50 (DLD-1): > 100 µM (inactive)
- GI50 (A549): > 100 µM (inactive)
- GI50 (SK-OV-3): > 100 µM (inactive)
- GI50 (TK-10): > 100 µM (inactive)
- GI50 (NCI-H522): 97.5 µM (inactive)
- GI50 (SF-295): > 100 µM (inactive)
- GI50 (A498): > 100 µM (inactive)
- GI50 (Malme-3M): > 100 µM (inactive)
- GI50 (UO-31): 17.3 µM (inactive)
- GI50 (KM-20L2): > 100 µM (inactive)
- GI50 (COLO 205): > 100 µM (inactive)
- GI50 (OVCAR-8): > 100 µM (inactive)
- GI50 (MOLT-4): > 100 µM (inactive)
- GI50 (LOX IMVI): > 100 µM (inactive)
- GI50 (HOP-18): > 100 µM (inactive)
- GI50 (UACC-257): > 100 µM (inactive)
- GI50 (RPMI-8226): > 100 µM (inactive)
- GI50 (M19-MEL): > 100 µM (inactive)
- GI50 (SW-620): > 100 µM (inactive)
- GI50 (EKVX): 87.7 µM (inactive)
- GI50 (SK-MEL-5): > 100 µM (inactive)
- GI50 (SNB-75): > 100 µM (inactive)
- GI50 (KM12): 81.8 µM (inactive)
- GI50 (HL-60): > 100 µM (inactive)
- GI50 (CCRF-CEM): > 100 µM (inactive)
- GI50 (OVCAR-5): > 100 µM (inactive)
- GI50 (SK-MEL-2): > 100 µM (inactive)
- GI50 (786-0): > 100 µM (inactive)
- GI50 (XF498): > 100 µM (inactive)
- GI50 (SF-539): > 100 µM (inactive)
- GI50 (OVCAR-3): > 100 µM (inactive)
- GI50 (HOP-92): 12 µM (inactive)
- GI50 (NCI-H460): > 100 µM (inactive)
- GI50 (DMS-273): > 100 µM (inactive)
- GI50 (HCT-116): 45.9 µM (inactive)
- GI50 (LXFL 529): > 100 µM (inactive)
- GI50 (SK-MEL-28): > 100 µM (inactive)
- GI50 (NCI-H23): > 100 µM (inactive)
- GI50 (SNB-78): > 100 µM (inactive)
- GI50 (SF-268): > 100 µM (inactive)
- GI50 (IGROV-1): > 100 µM (inactive)
- GI50 (K562): > 100 µM (inactive)
- GI50 (RXF 393): > 100 µM (inactive)
- GI50 (ACHN): > 100 µM (inactive)
- GI50 (HT-29): 46.1 µM (inactive)
- GI50 (HCC 2998): > 100 µM (inactive)
- GI50 (DMS-114): > 100 µM (inactive)
- GI50 (U-251): > 100 µM (inactive)
- GI50 (SNB-19): > 100 µM (inactive)
- GI50 (HOP-62): > 100 µM (inactive)
